These results are taken from patent US11149135B2, “Application of cyclodextrins (CDS) for remediation of perfluoroalkyl substances (PFASS)” (THE FLORIDA INTERNATIONAL UNIVERSITY BOARD OF TRUSTEES, priority 2017, dated 2021).

What all share (format): binding
Test [1] in a line: 19F NMR titration, average association constants of PFECAs with β-CD. The note with it: for Average association constant with β-CD (1:1): 1:1 β-CD:PFECA (unmarked values are 1:1); for Average association constant with β-CD (1:1) / Average association constant with β-CD (2:1): pH 7; for Average association constant with β-CD (2:1): 2:1 β-CD:PFECA; for Decrease (1:1): decrease of 1:1 β-CD association constant versus legacy PFAS of the same chain length; for Emerging PFAS Kassoc (1:1): 1:1 (unmarked values taken as 1:1); for association constant with β-CD: 1:1 β-CD:PFECA. As to the method:
(§1) ^19F NMR spectroscopy was performed with a 400 MHz Bruker instrument with a quad probe (operating at 376.498 MHz for 19F). Hexafluorobenzene was used as the internal standard with a chemical shift of −164.9 ppm. For the titration experiments, the chemical shift of each peak was recorded, and the 1:1 and 2:1 association constants were calculated in GraphPad Prism and Mathworks Matlab by Ramos Cabrer et al.'s, Langmuir 1999, 15, 5489-5495 method.
(§2) The ^19F NMR spectrum of each PFECA was monitored as a function of CD concentration. The individual CD:PFECA association constants were determined via nonlinear least-squares regression analysis of the change in observed chemical shift. The association constants determined for individual fluorines were then averaged to find the average association constant for each PFECA with each CD.

A short description of test [2]: 19F NMR titration, average association constants of PFECAs with α-CD. The settings on record: 50% D2O/50% H2O, pH 7; averaged over individual fluorines. More on the design: key: *: no significant association. Here is the method:
as §1, §2

The nature of test [3]: 19F NMR titration, average association constants of PFECAs with γ-CD. More on the design: key: *: no significant association. The note with it: 50% D2O/50% H2O, pH 7; averaged over individual fluorines. As to the method: as §1, §2
Test [4] in a line: 19F NMR association constants of β-CD:legacy PFAS complexes. The settings on record: for K1:1 association constant: 1:1 β-CD:PFAS complex; for K1:1 association constant / K2:1 association constant: aqueous media, room temperature; for K2:1 association constant: 2:1 β-CD:PFAS complex; for Legacy PFAS Kassoc (1:1): 1:1 (unmarked value taken as 1:1). Here is the method: A detailed comprehensive Nuclear Magnetic Resonance (NMR) spectral study of the complexation of PFASs to β-CD was conducted, Weiss-Errico and O'Shea, J. Hazardous Mat. 2017 329, 57-65, with highlights herein. […] Competition studies with adamantane-carboxylic acid and phenol confirmed the persistence of the β-CD:PFAS complex. The aqueous solution pH, ionic strength, and the presence of humic acid have only a modest influence on the β-CD:PFAS complexes. Table 2 gives the association constants for β-CD complexes with a sample of the PFASs studied, including perfluoroheptanoic acid (PFHpA), perfluorooctanoic acid (PFOA), perfluorononanoic acid (PFNA), perfluorooctane sulfonate (PFOS), and perfluorooctanesulfonamide (PFOSA).

Where [5] appears, read: estimated based on association constants from PFOA and PFNA.

`O=C(O)C(F)(F)OC(F)(F)C(F)(F)OC(F)(F)C(F)(F)OC(F)(F)F` [PFO3DA, perfluoro(3,6,9-trioxadecanoic) acid]: in test [1], the “Average association constant with β-CD (1:1)” value is 3.03 +/− 1.09 × 10^3 M^−1, the “Average association constant with β-CD (2:1)” value is listed as 4.12 +/− 1.08 × 10^3 M^−1 and the “Decrease (1:1)” value is on record as roughly 100. Also, the “Emerging PFAS Kassoc (1:1)” value in test [1] (β-CD:PFECA) is 3.03 +/− 1.09 × 10^3 (1:1) M^−1. Moreover, the “Average association constant with α-CD” value in test [2] is 9.28 +/− 2.80 × 10^1 M^−1. The “Average association constant with γ-CD” value in test [3] was 7.60 +/− 2.10 × 10^2 M^−1.

On to `O=C(O)C(F)(F)OC(F)(F)C(F)(F)OC(F)(F)C(F)(F)OC(F)(F)C(F)(F)C(F)(F)C(F)(F)F` [PFO3TDA, perfluoro-(3,6,9-trioxatridecanoic) acid], for which, in test [1], the “Average association constant with β-CD (1:1)” value is 5.93 +/− 1.20 × 10^5 M^−1 and the “Average association constant with β-CD (2:1)” value is 1.36 +/− 0.28 × 10^5 M^−1. Moreover, in test [2], the “Average association constant with α-CD” value was “*”. In test [3], the “Average association constant with γ-CD” value is on record as 3.48 +/− 1.50 × 10^3 M^−1.

With `O=C(O)C(F)(F)C(F)(F)C(F)(F)C(F)(F)C(F)(F)C(F)(F)F` [PFHpA, perfluoroheptanoic acid], in test [4], the “K1:1 association constant” value is on record as 4.30 ± 0.85 × 10^5 M^−1 and the “K2:1 association constant” value was 2.30 ± 0.27 × 10^3 M^−1. The “Legacy PFAS Kassoc (1:1)” value in test [4] (β-CD:legacy PFAS) was 4.30 +/− 0.85 x 10^5 (1:1) M^−1. Moreover, in test [4] (β-CD:legacy PFAS, 2:1), the “Legacy PFAS Kassoc (2:1)” value was 2.30 +/− 0.27 × 10^3 (2:1) M^−1.

In the case of `O=C(O)C(F)(F)OC(F)(F)F` [PFMOPrA, Perfluoro(3-oxabutanoic) acid], in test [1], the “Average association constant with β-CD (1:1)” value was 1.54 +/− 0.52 × 10^2 M^−1 and the “Decrease (1:1)” value is listed as less than 10. Moreover, in test [1] (β-CD:PFECA), the “Emerging PFAS Kassoc (1:1)” value is 1.54 +/− 0.52 × 10^2 M^−1. The “Average association constant with α-CD” value in test [2] is 2.60 +/− 1.14 × 10^1 M^−1. Also, the “Average association constant with γ-CD” value in test [3] is given as “*”.

As for `O=C(O)C(F)(F)OC(F)(F)C(F)(F)OC(F)(F)C(F)(F)C(F)(F)C(F)(F)F` [PFO2DA, perfluoro(3,6-dioxadecanoic) acid], in test [1], the “Average association constant with β-CD (1:1)” value is given as 1.38 +/− 0.40 × 10^4 M^−1, the “Average association constant with β-CD (2:1)” value is on record as 7.72 +/− 2.43 × 10^3 M^−1 and the “Decrease (1:1)” value is given as roughly 10. Besides, the “Emerging PFAS Kassoc (1:1)” value in test [1] (β-CD:PFECA) was 1.38 +/− 0.40 × 10^4 (1:1) M^−1. Further, the “Average association constant with α-CD” value in test [2] is “*”. Also, the “Average association constant with γ-CD” value in test [3] is listed as 1.39 +/− 0.38 × 10^3 M^−1.

Take `O=C(O)C(F)(F)C(F)(F)OC(F)(F)F` [PFMOBA, perfluoro(4-oxapentanoic) acid]: in test [1], the “association constant with β-CD” value turned out to be 1480 M⁻¹, the “Average association constant with β-CD (1:1)” value is 1.48 +/− 0.36 × 10^3 M^−1 and the “Decrease (1:1)” value is roughly 10. The “Emerging PFAS Kassoc (1:1)” value in test [1] (β-CD:PFECA) is 1.48 +/− 0.36 × 10^3 M^−1. Further, the “Average association constant with α-CD” value in test [2] is listed as 3.37 +/− 1.40 × 10^1 M^−1. Further, the “Average association constant with γ-CD” value in test [3] is on record as “*”.

Consider `NS(=O)(=O)C(F)(F)C(F)(F)C(F)(F)C(F)(F)C(F)(F)C(F)(F)C(F)(F)C(F)(F)F` [PFOSA, perfluorooctanesulfonamide], for which, in test [4], the “K1:1 association constant” value is reported as 1.02 ± 0.16 × 10^5 M^−1 and the “K2:1 association constant” value is 2.70 ± 0.57 × 10^4 M^−1.

`O=S(=O)(O)C(F)(F)C(F)(F)C(F)(F)C(F)(F)C(F)(F)C(F)(F)C(F)(F)C(F)(F)F` [PFOS, perfluorooctane sulfonate]: in test [4], the “K1:1 association constant” value is 6.96 ± 0.79 × 10^5 M^−1 and the “K2:1 association constant” value is given as 5.95 ± 1.70 × 10^4 M^−1.

Turning to `O=C(O)C(F)(F)C(F)(F)C(F)(F)C(F)(F)C(F)(F)C(F)(F)C(F)(F)C(F)(F)C(F)(F)F` [PFDA, perfluorodecanoic acid], in test [4] (setting [5]), the “Legacy PFAS Kassoc (1:1), estimated” value is on record as ~10^5 (1:1) M^−1 and the “Legacy PFAS Kassoc (2:1), estimated” value is reported as ~10^3 (2:1) M^−1.

Regarding `O=C(O)C(F)(F)C(F)(F)C(F)(F)OC(F)(C(F)(F)F)C(F)(F)F` [PFDMMOBA, perfluoro(5-oxa-6-dimethylhexanoic) acid], in test [1], the “association constant with β-CD” value was 26600 M⁻¹, the “Average association constant with β-CD (1:1)” value was 2.66 +/− 0.61 × 10^4 M^−1 and the “Decrease (1:1)” value was roughly 10. Further, the “stronger complexation with β-CD than PFPrOPrA” value in test [1] (ratio of β-CD association constants, PFDMMOBA versus PFPrOPrA) is reported as roughly 40 ×. In test [1] (β-CD:PFECA), the “Emerging PFAS Kassoc (1:1)” value is 2.66 +/− 0.61 × 10^4 M^−1. Further, the “Average association constant with α-CD” value in test [2] is “*”. Also, in test [3], the “Average association constant with γ-CD” value is recorded as 6.85 +/− 1.82 × 10^2 M^−1.

In the case of `O=C(O)C(F)(F)C(F)(F)C(F)(F)C(F)(F)C(F)(F)C(F)(F)C(F)(F)C(F)(F)F` [PFNA, perfluorononanoic acid], in test [4], the “K1:1 association constant” value is 3.37 ± 0.35 × 10^5 M^−1 and the “K2:1 association constant” value was 7.80 ± 0.66 × 10^3 M^−1.

As to `O=C(O)C(F)(OC(F)(F)C(F)(F)C(F)(F)F)C(F)(F)F` (stereo not drawn) [PFPrOPrA, Perfluoro(2-methyl-3-oxahexanoic) acid], in test [1], the “association constant with β-CD” value is 745 M⁻¹, the “Average association constant with β-CD (1:1)” value is on record as 7.45 +/− 4.27 × 10^2 M^−1 and the “Decrease (1:1)” value is on record as roughly 100. In addition, in test [1] (β-CD:PFECA), the “Emerging PFAS Kassoc (1:1)” value is given as 7.45 +/− 4.27 × 10^2 M^−1. For the same compound, the “Average association constant with α-CD” value in test [2] is reported as 2.36 +/− 1.10 × 10^2 M^−1. In addition, the “Average association constant with γ-CD” value in test [3] is reported as “*”.

With `O=C(O)C(F)(F)C(F)(F)C(F)(F)C(F)(F)F` [PFPA, perfluoropentanoic acid], the “Legacy PFAS Kassoc (1:1)” value in test [4] (β-CD:legacy PFAS) was 7.60 +/− 0.44 × 10^2 M^−1.

For `O=C(O)C(F)(F)OC(F)(F)C(F)(F)OC(F)(F)F` [PFO2HpA, perfluoro(3,6-dioxheptanoic) acid], in test [1], the “Average association constant with β-CD (1:1)” value is 4.74 +/− 2.04 × 10^2 M^−1, the “Average association constant with β-CD (2:1)” value was 3.87 +/− 1.40 × 10^2 M^−1 and the “Decrease (1:1)” value was roughly 1000. Besides, the “Emerging PFAS Kassoc (1:1)” value in test [1] (β-CD:PFECA) was 4.74 +/− 2.04 × 10^2 (1:1) M^−1. Besides, in test [1] (β-CD:PFECA, 2:1), the “Emerging PFAS Kassoc (2:1)” value is listed as 3.87 +/− 1.40 × 10^2 (2:1) M^−1. The “Average association constant with α-CD” value in test [2] was 5.34 +/− 0.48 × 10^1 M^−1. In addition, the “Average association constant with γ-CD” value in test [3] is recorded as 8.43 +/− 3.24 × 10^1 M^−1.
